Measured values: patent publication US20130158362A1 (INFACARE PHARMACEUTICAL CORPORATION, priority 2011, published 2013)

Tested on: total serum bilirubin (TSB)
Test: Phase 2b trial: total serum bilirubin (TSB), adjusted and unadjusted, change from baseline
Format: in vivo, human
Design: total serum bilirubin / total serum bilirubin, Delta (change from baseline) / Change from baseline of total serum bilirubin: unit not given here
Settings: for change from baseline in unadjusted TSB, Mean (SD) / change from baseline in unadjusted TSB, Median / unadjusted TSB, Mean (SD) / unadjusted TSB, Median / change from baseline in adjusted TSB, LS mean (SEM) / change from baseline in adjusted TSB, LS mean difference versus placebo / change from baseline in unadjusted TSB, LS Mean (SEM) / change from baseline in unadjusted TSB, LS Mean Difference versus placebo / adjusted TSB, Mean (SD) / change from baseline in adjusted TSB, Mean (SD) / change from baseline in adjusted TSB, Median / change from baseline in adjusted TSB, LS mean difference versus placebo, MMRM / change from baseline in adjusted TSB, LS means (SEM), MMRM: ITT; for Change from baseline of total serum bilirubin: 4.5 mg/kg (N = 5); for change from baseline in adjusted TSB, LS mean difference versus placebo, MMRM / change from baseline in adjusted TSB, LS means (SEM), MMRM: observed case
Procedure: Three cohorts of subjects were recruited. This clinical study was designed to evaluate safety and efficacy parameters in each cohort.
Scheduled assessments (including TSB) occurred before treatment and at 0.75 and 2 hours (or 1.5 and 3 hours, depending on PK blood sampling assignment); 6, 12, 24, 48, and 72 hours; and 14 and 30 (except TSB) days after treatment or early termination.
The primary efficacy endpoint was the change in adjusted TSB from baseline to 48 hours after treatment. The adjusted TSB was a calculation of the percentage variance of the TSB level from the age specific threshold for PT initiation per the AAP Guidelines, i.e., an indication of the distance below the PT threshold by time.
The Secondary Efficacy Endpoints were the change from baseline in unadjusted TSB at 48 hours after treatment, change from baseline in adjusted and unadjusted TSB at various other time points after treatment, percent change from baseline in unadjusted TSB, proportion of subjects who require PT/exchange transfusion (ET), time to PT/ET, duration of PT and time to hospital discharge.
Intent-to-treat population (ITT): Defined as all subjects who were randomly assigned treatment in the clinical study, had received IMP, and had at least 1 post baseline TSB measurement during the first 48 hours after treatment. Subjects were summarized based on randomized treatment.
Analysis of Efficacy Parameters: The primary efficacy analysis applied the analysis of covariance (ANCOVA) method to determine if there was a significant difference between treatment groups in change in adjusted TSB levels from baseline to 48 hours post baseline after controlling for the effects of gestational age and adjusted baseline TSB levels. If assumptions of ANCOVA appeared to be violated, a Wilcoxon rank-sum test could be performed instead. Time-to-event variables were analyzed using the Kaplan-Meier method, and Kaplan-Meier survival curves were presented.

[1] = 3.0 mg/kg IM, 72 h, LOCF, ANCOVA
[2] = 3.0 mg/kg IM, 14 days/early termination, LOCF
[3] = 3.0 mg/kg IM, 14 days/early termination, LOCF, ANCOVA
[4] = 3.0 mg/kg versus the placebo group, 48 Hours/Early termination, PP Population, ANCOVA
[5] = 3.0 mg/kg, 48 Hours/Early termination, PP Population, LOCF
[6] = 3.0 mg/kg, 6 hrs, unadjusted TSB, ITT Population
[7] = 3.0 mg/kg, 12 hrs, unadjusted TSB, ITT Population
[8] = 3.0 mg/kg, 24 hrs, unadjusted TSB, ITT Population
[9] = 3.0 mg/kg, 48 hrs, unadjusted TSB, ITT Population
[10] = 3.0 mg/kg, baseline, PP Population
[11] = 3.0 mg/kg, baseline, unadjusted TSB, ITT Population
[12] = 4.5 mg/kg IM, 6 h, LOCF, ANCOVA
[13] = 4.5 mg/kg IM, 12 h, LOCF, ANCOVA

Substance: tin IV mesoporphyrin IX dichloride [Stannsoporfin]
- change from baseline in unadjusted TSB, Mean (SD) (3.0 mg/kg IM, 72 h, LOCF): 1.66 (3.496) mg/dL
- change from baseline in unadjusted TSB, Median (3.0 mg/kg IM, 72 h, LOCF): 2.45 mg/dL
- unadjusted TSB, Mean (SD) (3.0 mg/kg IM, 72 h, LOCF): 9.87 (3.681) mg/dL
- unadjusted TSB, Median (3.0 mg/kg IM, 72 h, LOCF): 10.70 mg/dL
- change from baseline in adjusted TSB, LS mean (SEM) [1]: −19.28 (6.633) %
- change from baseline in adjusted TSB, LS mean difference versus placebo [1]: −14.53%
- change from baseline in unadjusted TSB, LS Mean (SEM) [1]: 2.77 (1.133) mg/dL
- change from baseline in unadjusted TSB, LS Mean Difference versus placebo [1]: -2.18 mg/dL
- change from baseline in unadjusted TSB, Mean (SD) [2]: −2.98 (5.389) mg/dL
- change from baseline in unadjusted TSB, Median [2]: -4.80 mg/dL
- unadjusted TSB, Mean (SD) [2]: 5.23 (5.123) mg/dL
- unadjusted TSB, Median [2]: 3.40 mg/dL
- change from baseline in unadjusted TSB, LS Mean (SEM) [3]: −2.42 (1.324) mg/dL
- change from baseline in unadjusted TSB, LS Mean Difference versus placebo [3]: -0.12 mg/dL
- 48 Hours/Early termination change from baseline in unadjusted TSB, LS mean difference [4]: -1.74 mg/dL
- P-value of LS mean difference, change from baseline in unadjusted TSB [4]: 0.078
- 48 Hours/Early termination change from baseline in unadjusted TSB, Max [5]: 5.4 mg/dL
- 48 Hours/Early termination change from baseline in unadjusted TSB, Mean (SD) [5]: 2.20 (2.928) mg/dL
- 48 Hours/Early termination change from baseline in unadjusted TSB, Median [5]: 2.87 mg/dL
- 48 Hours/Early termination change from baseline in unadjusted TSB, Min [5]: -3.4 mg/dL
- 48 Hours/Early termination unadjusted TSB, Max [5]: 13.8 mg/dL
- 48 Hours/Early termination unadjusted TSB, Mean (SD) [5]: 10.53 (2.911) mg/dL
- 48 Hours/Early termination unadjusted TSB, Median [5]: 11.60 mg/dL
- 48 Hours/Early termination unadjusted TSB, Min [5]: 4.2 mg/dL
- 48 Hours/Early termination change from baseline in unadjusted TSB, LS mean (SEM) (3.0 mg/kg, 48 Hours/Early termination, PP Population, LOCF, ANCOVA): 2.20 (0.881) mg/dL
- 6 hrs Percent Change from Baseline in TSB, Max [6]: 59.0%
- 6 hrs Percent Change from Baseline in TSB, Mean (SD) [6]: 19.54 (12.055) %
- 6 hrs Percent Change from Baseline in TSB, Min [6]: −2.6%
- 6 hrs TSB, Max [6]: 12.3 mg/dL
- 6 hrs TSB, Mean (SD) [6]: 9.74 (1.730) mg/dL
- 6 hrs TSB, Min [6]: 6.8 mg/dL
- 12 hrs Percent Change from Baseline in TSB, Max [7]: 73.8%
- 12 hrs Percent Change from Baseline in TSB, Mean (SD) [7]: 26.17 (15.650) %
- 12 hrs Percent Change from Baseline in TSB, Min [7]: 0.0%
- 12 hrs TSB, Max [7]: 12.2 mg/dL
- 12 hrs TSB, Mean (SD) [7]: 10.26 (1.748) mg/dL
- 12 hrs TSB, Min [7]: 6.9 mg/dL
- 24 hrs Percent Change from Baseline in TSB, Max [8]: 86.9%
- 24 hrs Percent Change from Baseline in TSB, Mean (SD) [8]: 24.84 (23.900) %
- 24 hrs Percent Change from Baseline in TSB, Median [8]: 23.00%
- 24 hrs Percent Change from Baseline in TSB, Min [8]: −11.8%
- 24 hrs TSB, Max [8]: 11.9 mg/dL
- 24 hrs TSB, Mean (SD) [8]: 10.06 (1.757) mg/dL
- 24 hrs TSB, Min [8]: 6.7 mg/dL
- 48 hrs Percent Change from Baseline in TSB, Max [9]: 88.5%
- 48 hrs Percent Change from Baseline in TSB, Mean (SD) [9]: 31.84 (36.062) %
- 48 hrs Percent Change from Baseline in TSB, Min [9]: −44.7%
- 48 hrs TSB, Max [9]: 14.1 mg/dL
- 48 hrs TSB, Mean (SD) [9]: 10.68 (2.956) mg/dL
- 48 hrs TSB, Min [9]: 4.2 mg/dL
- mean TSB levels (3.0 mg/kg, 14 days after treatment (text, not LOCF table)): 5.23 mg/dL
- Baseline unadjusted TSB, Max [10]: 10.4 mg/dL
- Baseline unadjusted TSB, Mean (SD) [10]: 8.33 (1.585) mg/dL
- Baseline unadjusted TSB, Median [10]: 8.90 mg/dL
- Baseline unadjusted TSB, Min [10]: 6.0 mg/dL
- Baseline TSB, Max [11]: 10.4 mg/dL
- Baseline TSB, Mean (SD) [11]: 8.21 (1.577) mg/dL
- Baseline TSB, Min [11]: 5.5 mg/dL
- Change from baseline of total serum bilirubin (6 hours, preliminary data): 1.69 ± 0.50
- Change from baseline of total serum bilirubin (24 hours, preliminary data): 0.93 ± 0.20
- Change from baseline of total serum bilirubin (48 hours, preliminary data): 0.80 ± 2.79
- total serum bilirubin (4.5 mg/kg IM (N = 5), 48 hours, treated per protocol, preliminary data): 9.88 ± 2.8
- adjusted TSB, Mean (SD) (4.5 mg/kg IM, 6 h, LOCF): −4.49 (11.322) %
- change from baseline in adjusted TSB, Mean (SD) (4.5 mg/kg IM, 6 h, LOCF): 4.70 (4.583) %
- change from baseline in adjusted TSB, Median (4.5 mg/kg IM, 6 h, LOCF): 4.10%
- change from baseline in unadjusted TSB, Mean (SD) (4.5 mg/kg IM, 6 h, LOCF): 1.69 (0.493) mg/dL
- change from baseline in unadjusted TSB, Median (4.5 mg/kg IM, 6 h, LOCF): 1.61 mg/dL
- unadjusted TSB, Mean (SD) (4.5 mg/kg IM, 6 h, LOCF): 11.27 (2.074) mg/dL
- unadjusted TSB, Median (4.5 mg/kg IM, 6 h, LOCF): 11.25 mg/dL
- change from baseline in adjusted TSB, LS mean (SEM) [12]: 4.03 (2.697) %
- change from baseline in adjusted TSB, LS mean difference versus placebo [12]: −0.35%
- change from baseline in unadjusted TSB, LS Mean (SEM) [12]: 1.62 (0.293) mg/dL
- change from baseline in unadjusted TSB, LS Mean Difference versus placebo [12]: 0.03 mg/dL
- change from baseline in adjusted TSB, LS mean difference versus placebo, MMRM (4.5 mg/kg IM, 6 h): −2.38%
- change from baseline in adjusted TSB, LS means (SEM), MMRM (4.5 mg/kg IM, 6 h): 2.00 (2.825) %
- adjusted TSB, Mean (SD) (4.5 mg/kg IM, 12 h, LOCF): −7.80 (9.906) %
- change from baseline in adjusted TSB, Mean (SD) (4.5 mg/kg IM, 12 h, LOCF): 1.39 (6.394) %
- change from baseline in adjusted TSB, Median (4.5 mg/kg IM, 12 h, LOCF): −0.70%
- change from baseline in unadjusted TSB, Mean (SD) (4.5 mg/kg IM, 12 h, LOCF): 1.89 (0.421) mg/dL
- change from baseline in unadjusted TSB, Median (4.5 mg/kg IM, 12 h, LOCF): 1.92 mg/dL
- unadjusted TSB, Mean (SD) (4.5 mg/kg IM, 12 h, LOCF): 11.48 (1.924) mg/dL
- unadjusted TSB, Median (4.5 mg/kg IM, 12 h, LOCF): 11.27 mg/dL
- change from baseline in adjusted TSB, LS mean (SEM) [13]: 2.17 (3.960) %
- change from baseline in adjusted TSB, LS mean difference versus placebo [13]: −4.96%
- change from baseline in unadjusted TSB, LS Mean (SEM) [13]: 1.95 (0.453) mg/dL
- change from baseline in unadjusted TSB, LS Mean Difference versus placebo [13]: -0.65 mg/dL
- change from baseline in adjusted TSB, LS mean difference versus placebo, MMRM (4.5 mg/kg IM, 12 h): −8.38%
- change from baseline in adjusted TSB, LS means (SEM), MMRM (4.5 mg/kg IM, 12 h): −2.41 (3.856) %
- adjusted TSB, Mean (SD) (4.5 mg/kg IM, 24 h, LOCF): −24.66 (15.145) %
- change from baseline in adjusted TSB, Mean (SD) (4.5 mg/kg IM, 24 h, LOCF): −15.48 (18.694) %
